Data as given in patent publication US20080166310A1, “Administration of 2-oxyacetamide compounds for promoting and/or inducing and/or stimulating the pigmentation of keratin materials and/or for limiting the depigmentation and/or bleaching thereof” (L'OREAL, priority 2005, published 2008).

Tested on: tyrosinase activity of normal human melanocytes
Experiment: Effect on the tyrosinase activity of normal human melanocytes in culture (L-Dopa substrate, absorbance 450 nm)
Type: cell-based
Conditions: 72 hours, normal human epidermal melanocytes
Protocol: Melanocyte Culture Conditions:
Normal human epidermal melanocytes are cultured (9th passage) in “melanocytes growth medium M2” supplemented with Promocell C24300 supplements 50 IU/ml of penicillin and 50 μg/ml of streptomycin (Invitrogen) under standard temperature conditions (37° C.) and 5% CO2.
Preparation of the Solutions of the Test Compound:
The compound is dissolved in absolute ethanol (PGE2) or in DMSO (15-PGDH inhibitors). The final titer of the prepared solutions is 10 mM. The final test concentrations range from 0.1 to 10 μM (PGE2) and 1 to 10 μM (15-PGDH inhibitors).
The tests performed consist in measuring the inhibitory effect on 15-PGDH alone or combined with PGE2* on the overall activity of tyrosinase.
PGE2 is a pigmentation modulator that is deactivated by the enzyme 15-PGDH.
The melanocytes are cultured in 96-well plates, to the point of confluence (culture conditions described in a), and the supernatant of each of the wells is then removed and replaced with medium containing the compounds to be evaluated, i.e., (in triplicate) the 15-PGDH inhibitor alone at 1 μM and 10 μM or for each of these first conditions in the presence of 0.1 μM, 1 μM or 10 μM of PGE2.
The cultures are maintained under these various conditions for 72 hours, the supernatants are then removed and the cell carpets are washed with a phosphate buffer (pH=7.2). The cells are lysed with a pH 7.2 phosphate buffer containing 1% Triton X100.
The tyrosinase activity of each of the lysates is then estimated against a fungal tyrosinase range (Sigma T7755).
The methodology employed uses L-Dopa as reaction substrate (45 minutes at 37° C.), and the formation of melanin is assessed by measuring the absorbance at 450 nm.
In this test, two references are also evaluated: kojic acid (a tyrosinase inhibitor introduced at 0.1% into the culture medium) and isobutylmethylxanthine (IBMX), a phosphodiesterase inhibitor which, by limiting the catabolism of cAMP, contributes towards increasing the overall tyrosinase activity as assessed in this test.

stimulation of the activity of tyrosinase (PGE2 alone at 1 μM) [%]	stimulation of the activity of tyrosinase (PGE2 alone at 10 μM) [%]	SMILES	stimulation of the tyrosinase activity (Compound 23 (1 μM) + PGE2 (1 μM)) [%]	stimulation of the tyrosinase activity (Compound 23 (1 μM) + PGE2 (10 μM)) [%]
–	–	O=C(COc1cccc(Cl)c1)NCc1ccco1 [Compound 23, 2-(3-chlorophenoxy)-N-furan-2-ylmethylacetamide]	31	28
9	15	CCCCC[C@H](O)/C=C/[C@H]1[C@H](O)CC(=O)[C@@H]1C/C=C\CCCC(=O)O [PGE2, prostaglandin E2]	–	–
